{"source": "paper PMC12582971", "about": "“NeuproGemp, a polyphenol-rich botanical formula, ameliorates Alzheimer’s-like pathology in APP/PS1 mice via inhibition of human glutaminyl cyclase” (Frontiers in Pharmacology, 2025)", "biological_target": "T1, human glutaminyl cyclase (hQC) (Homo sapiens, UniProt Q16769)", "T1 construct": "covering residues Ala33 to Leu361, was cloned into the pQE-80L expression vector; polyhistidine tag; made in house; host or cells: E. coli BL21 (DE3)", "T1 sequence (Q16769 33-361)": "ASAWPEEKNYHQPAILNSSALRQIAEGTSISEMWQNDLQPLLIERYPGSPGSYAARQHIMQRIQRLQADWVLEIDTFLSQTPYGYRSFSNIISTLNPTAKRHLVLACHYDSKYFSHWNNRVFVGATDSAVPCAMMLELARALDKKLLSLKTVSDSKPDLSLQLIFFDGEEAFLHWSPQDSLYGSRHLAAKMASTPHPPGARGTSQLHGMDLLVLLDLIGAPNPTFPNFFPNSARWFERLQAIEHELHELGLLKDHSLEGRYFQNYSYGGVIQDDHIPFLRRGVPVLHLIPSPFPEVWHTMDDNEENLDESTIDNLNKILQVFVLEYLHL", "test": "hQC inhibition assay (coupled spectrophotometric, H-Gln-Gln-OH substrate)", "assay_type": "biochemical", "settings": "for inhibitory effect on hQC (in words): dose-response assay; for IC50: 0.1 μM hQC, 1 mM H-Gln-Gln-OH, 25 °C, pH 8.0, mean ± SD, three experiments, read-out: IC50 against hQC", "description": "The coding sequence of human glutaminyl cyclase (hQC), covering residues Ala33 to Leu361, was cloned into the pQE-80L expression vector utilizing the restriction sites BamHI and HindIII. This recombinant plasmid was introduced into E. coli BL21 (DE3) cells through heat shock transformation. For protein expression, the transformed E. coli cells were grown in Luria-Bertani (LB) medium supplemented with 100 mg/L ampicillin at 37 °C. Once the optical density at 600 nm (OD600) reached 0.6, protein expression was induced using 0.1 mM isopropyl β-D-1-thiogalactopyranoside (IPTG), and the culture was incubated at 24 °C for 48 h, optimizing for soluble protein yield under reduced temperature conditions. After induction, the cells were harvested by centrifugation at 6,000 rpm for 20 min. The resulting cell pellet was resuspended in a lysis buffer containing 50 mM Tris-HCl (pH 8.5), 150 mM NaCl, and 20 mM imidazole. Cell disruption was performed using high-pressure homogenization via a microfluidizer (Microfluidics). The lysate was clarified through centrifugation, and the soluble protein fraction was purified using nickel-nitrilotriacetic acid (Ni-NTA) affinity chromatography, leveraging the polyhistidine tag for selective binding to the resin. The bound hQC protein was eluted and further purified using standard chromatographic techniques.\nThe inhibitory effects of various compounds on human glutaminyl cyclase (hQC) were assessed using a validated spectrophotometric assay. In this assay, glutamic dehydrogenase (EC 1.4.1.3; Sigma-Aldrich) was utilized as a coupling enzyme to indirectly quantify hQC activity, employing H-Gln-Gln-OH (Bachem) as the specific substrate. The reaction mixture consisted of 50 mM Tris-HCl (pH 8.0), 0.25 mM NADH, 30 U of glutamic dehydrogenase, 15 mM α-ketoglutaric acid, and 0.1 μM hQC. Inhibitors were introduced to the reaction mixture and allowed to incubate for 5 min at 25 °C to promote interaction with the enzyme. The enzymatic reaction was initiated by adding 1 mM of the substrate, and the progression was monitored by measuring the absorbance at 340 nm, corresponding to the oxidation of NADH. The IC50 values for the inhibitors were calculated by plotting initial reaction rates against the logarithmic concentrations of the inhibitors. Nonlinear regression fitting was conducted using GraphPad Prism 6 software, enabling accurate quantification of the inhibitors’ potencies and facilitating a detailed analysis of their inhibitory effects on hQC.\nThe enzymatic activity of recombinant hQC was measured using a coupled spectrophotometric assay with H-Gln-Gln-OH as substrate and glutamic dehydrogenase as a coupling enzyme. […] Initial reaction rates were monitored by measuring NADH oxidation at 340 nm, and IC50 values were calculated using nonlinear regression in GraphPad Prism 6. Data are presented as mean ± SD from three independent experiments. Lower IC50 values indicate stronger inhibition of hQC activity."}
{"smiles": "O=C(/C=C/c1ccccc1)OC[C@H]1O[C@@H](OC(=O)c2cc(O)c(O)c(O)c2)[C@H](O)[C@@H](O)[C@@H]1O", "note": "[1-o-galloyl-6-o-cinnamoylglucose]", "values": [{"measurement": "hQC activity suppression at 100 μM", "value": "less than 50%"}, {"measurement": "inhibitory effect on hQC (in words)", "value": "minimal to no significant inhibition"}]}
{"smiles": "O=C(OCC1OC(OC(=O)c2cc(O)c(O)c(O)c2)C(O)C(OC(=O)c2cc(O)c(O)c(O)c2)C1O)c1cc(O)c(O)c(O)c1", "note": "(stereo not drawn) [GG3, 1,3,6-Trigalloylglucose]", "values": [{"measurement": "IC50", "value": 4190, "unit": "nM"}, {"measurement": "inhibitory effect on hQC (in words)", "value": "only weak inhibitory effects"}]}
{"smiles": "O=C(OCC1OC(OC(=O)c2cc(O)c(O)c(O)c2)C(OC(=O)c2cc(O)c(O)c(O)c2)C(OC(=O)c2cc(O)c(O)c(O)c2)C1O)c1cc(O)c(O)c(O)c1", "note": "(stereo not drawn) [GG4, 1,2,3,6-Tetragalloylglucose]", "values": [{"measurement": "IC50", "value": 1430, "unit": "nM"}]}
{"smiles": "OCc1ccc(O[C@@H]2O[C@H](CO)[C@@H](O)[C@H](O)[C@H]2O)cc1", "note": "[Gastrodin]", "values": [{"measurement": "hQC activity suppression at 100 μM", "value": "less than 50%"}, {"measurement": "inhibitory effect on hQC (in words)", "value": "only weak inhibitory effects"}]}
{"smiles": "C[C@@]12C[C@@]3(O)O[C@@H](O1)[C@]1(COC(=O)c4ccccc4)[C@H]3C[C@@]12O[C@@H]1O[C@H](CO)[C@@H](O)[C@H](O)[C@H]1O", "note": "[Paeoniflorin]", "values": [{"measurement": "hQC activity suppression at 100 μM", "value": "less than 50%"}, {"measurement": "inhibitory effect on hQC (in words)", "value": "minimal to no significant inhibition"}]}
